Patent publication US6399614B1, “1-(N-phenylaminoalkyl)piperazine derivatives substituted at position 2 of the phenyl ring” (Recordati S.A. Chemical and Pharmaceutical Company, priority 1997, dated 2002)

Assays:
[1] = molecular target: T1, pre-synaptic 5-HT1A receptor (Mus musculus, UniProt Q64264); experiment: Antagonism of hypothermia induced by 8-OH-DPAT in mice (pre-synaptic antagonism); format: in vivo; details: for ED50: mouse, iv, read-out: Pre-synaptic 5-HT1A ID50, heading: Pre-synaptic 5-HT1A ID50, dose blocking 50% of hypothermia induced by 0.5 mg/kg s.c. 8-OH-DPAT in mice, compound i.v.
T1 construct: from tissue; host or cells: whole animal, male CD-1 mice
T1 sequence (Q64264 1-421): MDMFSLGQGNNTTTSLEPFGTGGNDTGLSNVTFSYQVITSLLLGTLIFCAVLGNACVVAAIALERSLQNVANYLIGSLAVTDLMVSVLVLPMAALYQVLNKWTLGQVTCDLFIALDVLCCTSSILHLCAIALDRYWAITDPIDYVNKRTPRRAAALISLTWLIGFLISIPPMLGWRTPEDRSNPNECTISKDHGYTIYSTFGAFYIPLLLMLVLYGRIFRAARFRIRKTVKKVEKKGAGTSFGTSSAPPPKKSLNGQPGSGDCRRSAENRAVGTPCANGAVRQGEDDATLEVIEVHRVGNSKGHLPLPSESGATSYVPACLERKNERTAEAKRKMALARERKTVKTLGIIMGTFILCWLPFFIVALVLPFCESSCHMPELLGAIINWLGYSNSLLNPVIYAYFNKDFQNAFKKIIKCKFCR
Description: The antagonistic effect of the 5-HT1A receptor antagonists of the invention on hypothermia induced by 8-OH-DPAT was evaluated by the method of Moser (Moser, Eur.J.Pharmacol., 193:165, 1991) with minor modifications as described below. Male CD-1 mice (28-38 g) obtained from Charles River (Italy) were housed in a climate-controlled room (temperature 22±2 C.; humidity 55±15%) and maintained on a 12 h light/dark cycle with free access to food and water. On the day of experiment, mice were placed singly in clear plastic boxes under the same ambient conditions. Body temperature was measured by the insertion of a temperature probe (Termist TM-S, LSI) into the rectum to a depth of 2 cm. Rectal temperature was measured immediately prior to intravenous injection of the test compound. All animals then received 8-OH-DPAT (0.5 mg/kg s.c.) and their temperature was measured 30 min later. For each animal, temperature changes were calculated with respect to pretreatment values and the mean values were calculated for each treatment group. A linear regression equation was used in order to evaluate ID50 values, defined as the dose of antagonist needed to block 50% of the hypothermic effect induced by 0.5 mg/kg 8-OH-DPAT administered subcutaneously.

[2] = molecular target: T2, 5-HT2A serotonergic receptors (Rattus norvegicus, UniProt P14842); experiment: Radioreceptor binding, native 5-HT2A receptors, rat cerebral cortex ([3H]ketanserin); details: Table 3A not given
T2 construct: from tissue; host or cells: rat cerebral cortex membranes
T2 sequence (P14842 whole entry): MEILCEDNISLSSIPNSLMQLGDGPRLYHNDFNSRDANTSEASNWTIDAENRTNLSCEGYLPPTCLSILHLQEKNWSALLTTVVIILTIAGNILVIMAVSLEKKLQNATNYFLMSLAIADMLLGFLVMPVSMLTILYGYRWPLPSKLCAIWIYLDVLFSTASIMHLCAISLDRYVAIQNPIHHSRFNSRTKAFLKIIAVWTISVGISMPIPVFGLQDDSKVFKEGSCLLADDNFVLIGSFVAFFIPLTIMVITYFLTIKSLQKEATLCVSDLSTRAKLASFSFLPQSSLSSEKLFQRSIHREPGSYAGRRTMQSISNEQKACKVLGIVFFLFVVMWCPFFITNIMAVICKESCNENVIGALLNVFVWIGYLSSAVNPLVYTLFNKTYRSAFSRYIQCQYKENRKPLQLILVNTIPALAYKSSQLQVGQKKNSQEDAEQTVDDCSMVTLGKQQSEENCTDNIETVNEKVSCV
Description: (§1) Binding studies on native α2 adrenergic receptors (Diop L. et al, J. Neurochem. 41, 710-715, 1983), and 5-HT2A serotonergic receptors (Craig A. and Kenneth J., Life Sci. 38, 117-127, 1986) were carried out in membranes of rat cerebral cortex. Male Sprague Dawley rats (200-300 g, SD Harlan/Nossan, Italy) were killed by cervical dislocation and cerebral cortexes were excised and immediately frozen in liquid nitrogen and stored at −70° C. until use. Tissues were homogenized (2×20 sec) in 50 volumes of cold 50 mM Tris-HCl buffer pH 7.4, using a Polytron homogenizer (speed 7). Homogenates were centrifuged at 49000×g for 10 min, resuspended in 50 volumes of the same buffer, incubated at 37° C. for 15 min and centrifuged and resuspended twice more. […] Non-specific binding was determined in the presence of 10 μM phentolamine (a2-adrenergic receptors) or 2 μM ketanserin (5-HT2A serotoninergic receptors). […] The filters are then washed with ice-cold buffer and the radioactivity retained on the filters was counted by liquid scintillation spectrometry.
(§2) The inhibition of specific binding of the radioligands by the tested drugs was analyzed to estimate the IC50 value by using the non-linear curve-fitting program Allfit (De Lean et al., Am. J. Physiol. 235, E97-E102, 1978). […]

[3] = test system: α2 adrenergic receptors; experiment: Radioreceptor binding, native α2-adrenoceptors, rat cerebral cortex ([3H]rauwolscine); details: Table 3A not given
Description: as §1, §2

fold less active than compound of Example 2, pre-synaptic model ([1]; hypothermia model in mice) | ED50 [1] [mg/kg] | selectivity for the 5-HT1A receptor versus the 5-HT2A [2] | selectivity for the 5-HT1A receptor versus the a2-adrenoceptors [3] | Structure (SMILES)
at least 10 fold | 0.221 | – | – | COc1ccccc1N1CCN(CCN(C(=O)C2CCCCC2)c2ccccc2)CC1 [Compound A, 1-(N-phenyl-N-cyclohexylcarbonyl-2-aminoethyl)-4-(2-methoxyphenyl)piperazine, reference compound]
– | 0.02 | much more selective than compound A | much more selective than compound A | COc1ccccc1N1CCN(CCN(C(=O)C2CCCCC2)c2ccccc2[N+](=O)[O-])CC1 [Example 2, 1-[N-(2-nitrophenyl)-N-cyclohexylcarbonyl-2-aminoethyl]-4-(2-methoxyphenyl) piperazine]
